Assay results published in patent publication US10233188B2, “CDK2/4/6 inhibitors” (priority 2016, dated 2019).

Key:
CDK2/Cyclin E1 = CDK2/Cyclin E1 (Homo sapiens (Human), UniProt P24941); assay: biochemical; settings: CDK2_Ki (nM), phosphorylated CDK2/Cyclin E1, 150 μM ATP, Morrison tight-binding fit
Experimental: The assay was initiated with the addition of ATP, following a fifteen minutes pre-incubation of enzyme and inhibitor at room temperature in the reaction mixture. The reaction was stopped after 45 minutes at room temperature by the addition of 50 μL of 80 mM EDTA, pH 7.5.

CDK6/Cyclin D1 = CDK6/Cyclin D1 (Homo sapiens (Human), UniProt Q00534); assay: biochemical; settings: CDK6_Ki (nM), non-phosphorylated CDK6/Cyclin D1, 2 mM ATP, Morrison fit
Sequence of CDK6/Cyclin D1 (Q00534 whole entry): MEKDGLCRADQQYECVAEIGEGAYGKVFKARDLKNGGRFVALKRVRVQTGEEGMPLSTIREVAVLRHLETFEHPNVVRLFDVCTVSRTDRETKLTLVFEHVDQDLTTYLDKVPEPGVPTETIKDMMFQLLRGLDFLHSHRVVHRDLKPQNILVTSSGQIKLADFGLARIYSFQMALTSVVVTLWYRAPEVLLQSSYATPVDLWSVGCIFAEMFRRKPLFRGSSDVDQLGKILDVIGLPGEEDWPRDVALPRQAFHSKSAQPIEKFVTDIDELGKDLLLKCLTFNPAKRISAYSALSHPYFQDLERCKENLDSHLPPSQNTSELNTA
Sequence of CDK6/Cyclin D1 (P24385 whole entry partner): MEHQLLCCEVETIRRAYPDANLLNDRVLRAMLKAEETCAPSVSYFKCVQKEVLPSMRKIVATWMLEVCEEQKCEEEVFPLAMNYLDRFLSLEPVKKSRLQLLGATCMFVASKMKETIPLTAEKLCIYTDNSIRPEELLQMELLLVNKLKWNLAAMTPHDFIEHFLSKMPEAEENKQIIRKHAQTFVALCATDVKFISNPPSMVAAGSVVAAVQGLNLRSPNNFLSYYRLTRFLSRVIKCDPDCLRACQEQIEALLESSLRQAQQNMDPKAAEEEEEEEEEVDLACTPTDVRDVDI

Row | Ki (CDK2/Cyclin E1) | Ki (CDK6/Cyclin D1) | Compound
1 | 1.99 nM | 4.15 nM | Cc1cc2cnc(NC3CCN(S(=O)(=O)C4CC4)CC3)nc2n([C@H]2CCC[C@]2(C)O)c1=O (single isomer, unassigned) [Example 113, (+)-2-{[1-(cyclopropylsulfonyl)piperidin-4-yl]amino}-8-[(1R*,2R*)-2-hydroxy-2-methylcyclopentyl]-6-methylpyrido[2,3-d]pyrimidin-7(8H)-one]
2 | 1.39 nM | 0.54 nM | COCc1cc2cnc(NC3CCN(S(C)(=O)=O)CC3)nc2n([C@@H]2CCC[C@@H]2C)c1=O [Example 48, 6-(methoxymethyl)-8-[(1R,2S)-2-methylcyclopentyl]-2-{[1-(methylsulfonyl)piperidin-4-yl]amino}pyrido[2,3-d]pyrimidin-7(8H)-one]
3 | 0.57 nM | 0.37 nM | C[C@@]1(O)CCC[C@H]1n1c(=O)c(C(F)(F)F)cc2cnc(NC3CCN(S(C)(=O)=O)CC3)nc21 [Example 132, 8-[(1R,2R)-2-hydroxy-2-methylcyclopentyl]-2-{[1-(methylsulfonyl)piperidin-4-yl]amino}-6-(trifluoromethyl)pyrido[2,3-d]pyrimidin-7(8H)-one]
4 | 0.2 nM | 0.96 nM | CNS(=O)(=O)N1CCC(Nc2ncc3cc(Cl)c(=O)n([C@@H]4CCC[C@@]4(C)O)c3n2)CC1 (single isomer, unassigned) [Example 126, (−)-4-({6-chloro-8-[(1R*,2R*)-2-hydroxy-2-methylcyclopentyl]-7-oxo-7,8-dihydropyrido[2,3-d]pyrimidin-2-yl}amino)-N-methylpiperidine-1-sulfonamide]
5 | 1.32 nM | 0.85 nM | Cc1cc2cnc(NC3CCN(S(=O)(=O)C(F)(F)F)CC3)nc2n([C@@H]2CCC[C@@]2(C)O)c1=O (single isomer, unassigned) [Example 181, (−)-8-[(1R*,2R*)-2-hydroxy-2-methylcyclopentyl]-6-methyl-2-({1-[(trifluoromethyl)sulfonyl]piperidin-4-yl}amino)pyrido[2,3-d]pyrimidin-7(8H)-one]
6 | 1.47 nM | 1.63 nM | Cc1cc2cnc(NC3CCN(S(C)(=O)=O)CC3)nc2n([C@@H]2CC[C@@H](O)C2)c1=O (single isomer, unassigned) [Example 167, (−)-8-[(1R*,3R*)-3-hydroxycyclopentyl]-6-methyl-2-{[1-(methylsulfonyl)piperidin-4-yl]amino}pyrido[2,3-d]pyrimidin-7(8H)-one]
7 | 3.27 nM | 3.99 nM | Cc1cc2cnc(NC3CCN(S(=O)(=O)C4CCS(=O)(=O)C4)CC3)nc2n([C@H]2CCC[C@]2(C)O)c1=O (single isomer, unassigned; isomer c) [Example 108, (+)-2-[(1-{[(3ξ)-1,1-dioxidotetrahydrothiophen-3-yl]sulfonyl}piperidin-4-yl)amino]-8-[(1R*,2R*)-2-hydroxy-2-methylcyclopentyl]-6-methylpyrido[2,3-d]pyrimidin-7(8H)-one-Isomer C]
8 | 1.35 nM | 0.34 nM | CS(=O)(=O)N1CCC(Nc2ncc3cc(C(F)F)c(=O)n(C4CCCC4)c3n2)CC1 [Example 30, 8-cyclopentyl-6-(difluoromethyl)-2-{[1-(methylsulfonyl)piperidin-4-yl]amino}pyrido[2,3-d]pyrimidin-7(8H)-one]
9 | 5.72 nM | 3.84 nM | CC[C@]1(O)CCC[C@@H]1n1c(=O)c(Cl)cc2cnc(NC3CCN(S(C)(=O)=O)CC3)nc21 (single isomer, unassigned) [Example 196, (+)-6-chloro-8-[(1R*,2R*)-2-ethyl-2-hydroxycyclopentyl]-2-{[1-(methylsulfonyl)piperidin-4-yl]amino}pyrido[2,3-d]pyrimidin-7(8H)-one]
10 | 0.84 nM | 1.1 nM | Cc1cc2cnc(NC3CCN(S(C)(=O)=O)CC3)nc2n([C@@H]2CCC[C@@H](O)C2)c1=O (single isomer, unassigned) [Example 32, (+)-8-[(1R*,3R*)-3-hydroxycyclohexyl]-6-methyl-2-{[1-(methylsulfonyl)piperidin-4-yl]amino}pyrido[2,3-d]pyrimidin-7(8H)-one]
11 | 19.2 nM | 7.82 nM | CS(=O)(=O)N1CCC(Nc2ncc3cc(Cl)c(=O)n([C@H]4CCC[C@H](O)C4)c3n2)CC1 (single isomer, unassigned) [Example 35, (−)-6-chloro-8-[(1R*,3R*)-3-hydroxycyclohexyl]-2-{[1-(methylsulfonyl)piperidin-4-yl]amino}pyrido[2,3-d]pyrimidin-7(8H)-one]
12 | 5.03 nM | 8.95 nM | COCCS(=O)(=O)N1CCC(Nc2ncc3ccc(=O)n([C@H]4CCC[C@]4(C)O)c3n2)CC1 (single isomer, unassigned) [Example 73, (+)-8-[(1R*,2R*)-2-hydroxy-2-methylcyclopentyl]-2-({1-[(2-methoxyethyl)sulfonyl]piperidin-4-yl}amino)pyrido[2,3-d]pyrimidin-7(8H)-one]
13 | 2.87 nM | 4.15 nM | Cc1cc2cnc(NC3CCN(S(=O)(=O)CC(F)(F)F)CC3)nc2n([C@H]2CCC[C@]2(C)O)c1=O (single isomer, unassigned) [Example 119, (+)-8-[(1R*,2R*)-2-hydroxy-2-methylcyclopentyl]-6-methyl-2-({1-[(2,2,2-trifluoroethyl)sulfonyl]piperidin-4-yl}amino)pyrido[2,3-d]pyrimidin-7(8H)-one]
14 | 0.41 nM | 3.23 nM | C[C@@]1(O)CCC[C@H]1n1c(=O)ccc2cnc(NC3CCN(S(=O)(=O)NC4CCOCC4)CC3)nc21 (single isomer, unassigned) [Example 68, (−)-4-({8-[(1R*,2R*)-2-hydroxy-2-methylcyclopentyl]-7-oxo-7,8-dihydropyrido[2,3-d]pyrimidin-2-yl}amino)-N-(tetrahydro-2H-pyran-4-yl)piperidine-1-sulfonamide]
15 | 0.69 nM | 3.84 nM | CNS(=O)(=O)N1CCC(Nc2ncc3cc(F)c(=O)n([C@@H]4CCC[C@@]4(C)O)c3n2)CC1 (single isomer, unassigned) [Example 124, (−)-4-({6-fluoro-8-[(1R*,2R*)-2-hydroxy-2-methylcyclopentyl]-7-oxo-7,8-dihydropyrido[2,3-d]pyrimidin-2-yl}amino)-N-methylpiperidine-1-sulfonamide]
16 | 0.08 nM | 0.14 nM | C[C@H]1CCC[C@H]1n1c(=O)c(CCO)cc2cnc(NC3CCN(S(C)(=O)=O)CC3)nc21 [Example 40, 6-(2-hydroxyethyl)-8-[(1R,2S)-2-methylcyclopentyl]-2-{[1-(methylsulfonyl)piperidin-4-yl]amino}pyrido[2,3-d]pyrimidin-7(8H)-one]
17 | 0.78 nM | 3.9 nM | CNS(=O)(=O)N1CCC(Nc2ncc3ccc(=O)n([C@H]4C[C@H](O)CC[C@@H]4F)c3n2)CC1 (single isomer, unassigned) [Example 219, (+)-4-({8-[(1S*,2S*,5R*)-2-fluoro-5-hydroxycyclohexyl]-7-oxo-7,8-dihydropyrido[2,3-d]pyrimidin-2-yl}amino)-N-methylpiperidine-1-sulfonamide]
18 | 7.03 nM | 6.24 nM | C[C@]1(O)CCC[C@@H]1n1c(=O)ccc2cnc(NC3CCN(S(=O)(=O)c4nncs4)CC3)nc21 (single isomer, unassigned) [Example 81, (+)-8-[(1R*,2R*)-2-hydroxy-2-methylcyclopentyl]-2-{[1-(1,3,4-thiadiazol-2-ylsulfonyl)piperidin-4-yl]amino}pyrido[2,3-d]pyrimidin-7(8H)-one]
19 | 0.25 nM | 1.53 nM | C[C@@]1(O)CCC[C@H]1n1c(=O)ccc2cnc(NC3CCN(S(=O)(=O)c4nncs4)CC3)nc21 (single isomer, unassigned) [Example 80, (−)-8-[(1R*,2R*)-2-hydroxy-2-methylcyclopentyl]-2-{[1-(1,3,4-thiadiazol-2-ylsulfonyl)piperidin-4-yl]amino}pyrido[2,3-d]pyrimidin-7(8H)-one]
20 | 1.79 nM | 2.33 nM | CC(C)(O)CS(=O)(=O)N1CCC(Nc2ncc3ccc(=O)n(C4CCCC4)c3n2)CC1 [Example 17, 8-cyclopentyl-2-({1-[(2-hydroxy-2-methylpropyl)sulfonyl]piperidin-4-yl}amino)pyrido[2,3-d]pyrimidin-7(8H)-one]
21 | 27.8 nM | 83.3 nM | CS(=O)(=O)N1CCC(Nc2ncc3cc(CC(N)=O)c(=O)n([C@H]4CCC[C@H](O)C4)c3n2)CC1 (single isomer, unassigned) [Example 214, (−)-2-(8-[(1R*,2R*)-3-hydroxycyclohexyl]-2-{[1-(methylsulfonyl)piperidin-4-yl]amino}-7-oxo-7,8-dihydropyrido[2,3-d]pyrimidin-6-yl)acetamide]
22 | 9.51 nM | 4.72 nM | Cc1cc2cnc(NC3CCN(S(C)(=O)=O)CC3)nc2n([C@H]2C[C@@H](O)C[C@H]2C)c1=O (single isomer, unassigned) [Example 200, (+)-8-[(1R*,2S*,4R*)-4-hydroxy-2-methylcyclopentyl]-6-methyl-2-{[1-(methylsulfonyl)piperidin-4-yl]amino}pyrido[2,3-d]pyrimidin-7(8H)-one]
23 | 0.38 nM | 2.18 nM | C[C@@]1(O)CCC[C@H]1n1c(=O)c(CC(N)=O)cc2cnc(NC3CCN(S(C)(=O)=O)CC3)nc21 (single isomer, unassigned) [Example 179, (−)-2-(8-[(1R*,2R*)-2-hydroxy-2-methylcyclopentyl]-2-{[1-(methylsulfonyl)piperidin-4-yl]amino}-7-oxo-7,8-dihydropyrido[2,3-d]pyrimidin-6-yl)acetamide]
24 | 5.49 nM | 4.68 nM | CC[C@@]1(O)CCC[C@H]1n1c(=O)c(Cl)cc2cnc(NC3CCN(S(C)(=O)=O)CC3)nc21 (single isomer, unassigned) [Example 195, (−)-6-chloro-8-[(1R*,2R*)-2-ethyl-2-hydroxycyclopentyl]-2-{[1-(methylsulfonyl)piperidin-4-yl]amino}pyrido[2,3-d]pyrimidin-7(8H)-one]
25 | 0.35 nM | 0.83 nM | C[C@@]1(O)CCC[C@H]1n1c(=O)ccc2cnc(NC3CCN(S(=O)(=O)C4CCS(=O)(=O)C4)CC3)nc21 (single isomer, unassigned) [Example 70]
